“Also recorded” adds a separate entry of the source.
How the values were obtained:
[1] = Tolerability of topical use on the eye; assay type: in vivo, human; details: topical ocular use
epithelial cells = assay: Staining behaviour on tear film and corneal epithelial cells

penetration into cells (epithelial cells): does not penetrate into the cells
Compound: Cc1cc2nc3c(=O)[nH]c(=O)nc-3n(C[C@H](O)[C@H](O)[C@H](O)CO)c2cc1C [riboflavin]
harmfulness / side effects on the eye [1]: not harmful to the human eye; also recorded: side no effects; also recorded: absence of toxic effects on the corneal epithelium

— US9370587B2, “Coloring substance for diagnostic ophtalmologic use” (IROS R.C. S.r.l., priority 2012, dated 2016)
